Results published in publication PMC12024234, “Antioxidant, Anti-Inflammatory, and Oral Bioavailability of Novel Sulfonamide Derivatives of Gallic Acid” (Antioxidants, 2025).

Molecular target: T1, CYP2D6 (Homo sapiens, UniProt P10635)
T1 construct: purchased Sigma Aldrich C4982
Assay: Metabolism by cytochrome P450 2D6 (CypExpress), HPLC
Format: in vitro ADME
Settings: 4 h
Protocol: The enzymatic activity of cytochrome P450 2D6 (CYP2D6) was evaluated following the CypExpress protocol (C4982, Sigma Aldrich, Darmstadt, Germany). The reaction buffer consisted of 5 mM glucose-6-phosphate (G6P), 2 mM nicotinamide adenine dinucleotide phosphate (NADP+), and 3,4,5-TMBS prepared in PBS at concentrations of 1000 and 1500 µM. Diltiazem was used as a positive control. The reaction was initiated by adding CYP2D6, and the mixture was vortexed for 5 min. The samples were then incubated at 37 °C with gentle shaking at 100 rpm for 4 h. The reaction was terminated by adding acetonitrile, followed by centrifugation at 800 rpm for 10 min. The supernatant was collected and analyzed using HPLC.

T1 sequence (P10635 whole entry): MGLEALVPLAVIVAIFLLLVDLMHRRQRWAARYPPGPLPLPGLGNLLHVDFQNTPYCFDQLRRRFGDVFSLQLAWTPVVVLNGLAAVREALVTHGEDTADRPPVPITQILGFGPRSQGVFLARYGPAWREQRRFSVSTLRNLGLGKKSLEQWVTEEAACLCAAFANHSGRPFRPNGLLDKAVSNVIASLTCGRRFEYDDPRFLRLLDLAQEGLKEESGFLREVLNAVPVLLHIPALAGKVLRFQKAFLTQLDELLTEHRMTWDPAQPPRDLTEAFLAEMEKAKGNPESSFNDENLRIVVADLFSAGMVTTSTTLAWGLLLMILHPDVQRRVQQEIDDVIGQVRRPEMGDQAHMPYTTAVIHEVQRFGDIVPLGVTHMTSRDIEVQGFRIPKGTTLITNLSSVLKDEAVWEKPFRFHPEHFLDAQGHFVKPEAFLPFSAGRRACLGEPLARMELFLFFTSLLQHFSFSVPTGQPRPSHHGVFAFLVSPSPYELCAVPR

Metabolism by CYP2D6 (concentration) (1000 µM): 833 ± 54.9 µM
Metabolism by CYP2D6 (concentration) (1500 µM): 1248 ± 5.02 µM
SMILES: COc1cc(S(N)(=O)=O)cc(OC)c1OC [3,4,5-TMBS, 3,4,5-trimethoxybenzenesulfonamide]
